Experimental data from PubChem BioAssay AID330 (DTP/NCI, 2004).
Toxic doses and inconclusive results are not listed. Peptide text beside a SMILES is read from it.

Tested on: P388 leukemia ip, CD2F1 mice, survival T/C
Test: NCI In Vivo Anticancer Drug Screen. Data for tumor model P388 Leukemia (intraperitoneal) in CD2F1 (CDF1) mice
Conditions: endpoint: median survival time, higher = longer survival
Summary of the method: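 Mice carrying the transplanted tumor received test compound or vehicle. Survival was recorded in each group, and the value is the treated-group measurement divided by that of the vehicle-treated control group.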

[1] = dose: 50.0 mg/kg/injection, schedule: Q01DX005 (ip), vehicle: Klucel (hydroxypropylcellulose) (HPC)
[2] = dose: 100.0 mg/kg/injection, schedule: Q01DX005 (ip), vehicle: Klucel (hydroxypropylcellulose) (HPC)
[3] = dose: 50.0 mg/kg/injection, schedule: Q01DX009 (ip), vehicle: Klucel (hydroxypropylcellulose) (HPC)
[4] = dose: 100.0 mg/kg/injection, schedule: Q01DX009 (ip), vehicle: Klucel (hydroxypropylcellulose) (HPC)
[5] = dose: 200.0 mg/kg/injection, schedule: Q01DX009 (ip), vehicle: Klucel (hydroxypropylcellulose) (HPC)
[6] = dose: 50.0 mg/kg/injection, schedule: Q01DX009 (ip), vehicle: saline
[7] = dose: 100.0 mg/kg/injection, schedule: Q01DX009 (ip), vehicle: saline
[8] = dose: 25.0 mg/kg/injection, schedule: Q01DX005 (ip), vehicle: Klucel (hydroxypropylcellulose) (HPC)
[9] = dose: 6.25 mg/kg/injection, schedule: Q01DX009 (ip), vehicle: saline with Tween-80
[10] = dose: 12.5 mg/kg/injection, schedule: Q01DX009 (ip), vehicle: saline with Tween-80
[11] = dose: 200.0 mg/kg/injection, schedule: Q01DX009 (ip), vehicle: saline with Tween-80
[12] = dose: 50.0 mg/kg/injection, schedule: Q01DX005 (ip), vehicle: saline with Tween-80
[13] = dose: 100.0 mg/kg/injection, schedule: Q01DX005 (ip), vehicle: saline with Tween-80

CCC(C)C(NC(=O)C(N)CCCN=C(N)N)C(=O)O (stereo not drawn) (H-Arg-Ile-OH; configuration not given here)
T/C [1]: 98 % of control | T/C [2]: 100 % of control | T/C (dose: 200.0 mg/kg/injection, schedule: Q01DX005 (ip), vehicle: Klucel (hydroxypropylcellulose) (HPC)): 101 % of control

O=C1CCC/C1=C1/SS/C(=C2/CCCC2=O)S1
T/C [3]: 101 % of control | T/C [4]: 102 % of control | T/C [5]: 98 % of control

C[CH](C)[Ge]([CH3])([CH](C)C)[CH](C)C
T/C [6]: 100 % of control | T/C [7]: 93 % of control | T/C (dose: 200.0 mg/kg/injection, schedule: Q01DX009 (ip), vehicle: saline): 110 % of control

Cn1c(=O)n2n(c1=O)C1C3C4C3C3C5(COCC135)C42 (centres undefined)
T/C [3]: 97 % of control | T/C [4]: 92 % of control | T/C [5]: 97 % of control

C=CC(/C=C\c1ccc(OC2OC(CO)C(O)C(O)C2O)cc1)c1ccc(OC2OC(CO)C(O)C(O)C2O)cc1 (centres undefined)
T/C (dose: 60.0 mg/kg/injection, schedule: Q01DX005 (ip), vehicle: saline): 97 % of control | T/C (dose: 120.0 mg/kg/injection, schedule: Q01DX005 (ip), vehicle: saline): 103 % of control | T/C (dose: 240.0 mg/kg/injection, schedule: Q01DX005 (ip), vehicle: saline): 92 % of control

Cc1ccc(CC(=O)O)cc1C
T/C (dose: 100.0 mg/kg/injection, schedule: Q04DX003 (ip), vehicle: saline with Tween-80): 190 % of control | T/C (dose: 200.0 mg/kg/injection, schedule: Q04DX003 (ip), vehicle: saline with Tween-80): 113 % of control | T/C (dose: 400.0 mg/kg/injection, schedule: Q04DX003 (ip), vehicle: saline with Tween-80): 113 % of control

COC(=O)/C=C1\C=CC(=O)OC1O (centres undefined)
T/C (dose: 6.25 mg/kg/injection, schedule: Q01DX005 (ip), vehicle: Klucel (hydroxypropylcellulose) (HPC)): 102 % of control | T/C (dose: 12.5 mg/kg/injection, schedule: Q01DX005 (ip), vehicle: Klucel (hydroxypropylcellulose) (HPC)): 103 % of control | T/C [8]: 113 % of control

O=C1C=C(O)CN1C(=O)c1ccc(Cl)cc1
T/C [3]: 98 % of control | T/C [4]: 107 % of control | T/C [5]: 107 % of control

CN=C(NC)c1ccc(NC(=O)/C=C\c2ccc(C(=O)Nc3ccc(C(=NC)NC)cc3)cc2)cc1
T/C (dose: 3.13 mg/kg/injection, schedule: Q01DX009 (ip), vehicle: saline with Tween-80): 172 % of control | T/C (dose: 4.4 mg/kg/injection, schedule: Q04DX003 (ip), vehicle: saline with Tween-80): 150 % of control | T/C [9]: 113 % of control | T/C (dose: 10.0 mg/kg/injection, schedule: Q04DX003 (ip), vehicle: saline with Tween-80): 155 % of control | T/C [10]: 95 % of control | T/C (dose: 15.0 mg/kg/injection, schedule: Q04DX003 (ip), vehicle: saline with Tween-80): 155 % of control

COc1ccc(/C=C2/SC(=S)N(Cc3ccco3)C2=O)cc1
T/C [9]: 100 % of control | T/C [10]: 91 % of control | T/C [11]: 86 % of control

CC1(c2ccccc2)CCCCC/C1=N/Nc1ccc([N+](=O)[O-])cc1[N+](=O)[O-] (centres undefined)
T/C [8]: 97 % of control | T/C [1]: 90 % of control | T/C [2]: 94 % of control

CC(=O)OCC12C(OC(C)=O)CC(C)C3(CC(c4ccoc4)OC3=O)C1CCC(=O)C2(O)CCl (centres undefined)
T/C (dose: 0.75 mg/kg/injection, schedule: Q01DX005 (ip), vehicle: saline + alcohol): 106 % of control | T/C (dose: 1.5 mg/kg/injection, schedule: Q01DX005 (ip), vehicle: saline + alcohol): 103 % of control | T/C (dose: 3.0 mg/kg/injection, schedule: Q01DX005 (ip), vehicle: saline + alcohol): 106 % of control | T/C (dose: 6.0 mg/kg/injection, schedule: Q01DX005 (ip), vehicle: saline + alcohol): 108 % of control | T/C (dose: 12.0 mg/kg/injection, schedule: Q01DX005 (ip), vehicle: saline + alcohol): 106 % of control | T/C (dose: 12.5 mg/kg/injection, schedule: Q01DX005 (ip), vehicle: saline + Tween-80 + alcohol): 92 % of control | T/C (dose: 25.0 mg/kg/injection, schedule: Q01DX005 (ip), vehicle: saline + Tween-80 + alcohol): 98 % of control | T/C (dose: 100.0 mg/kg/injection, schedule: Q01DX005 (ip), vehicle: saline + Tween-80 + alcohol): 89 % of control | T/C (dose: 150.0 mg/kg/injection, schedule: Q01DX005 (ip), vehicle: saline + Tween-80 + alcohol): 91 % of control

CCCCn1c(C)nc2ccccc21
T/C [12]: 100 % of control | T/C [13]: 100 % of control

CCC(=O)Nc1cc(C(F)(F)F)cc2[nH]c(C)nc12
T/C [12]: 97 % of control | T/C [13]: 99 % of control | T/C (dose: 200.0 mg/kg/injection, schedule: Q01DX005 (ip), vehicle: saline with Tween-80): 100 % of control

O=[n+]1c2c(n([O-])c3cc(Cl)c(Cl)cc31)CCCCC2
T/C (dose: 50.0 mg/kg/injection, schedule: Q01DX009 (ip), vehicle: saline with Tween-80): 91 % of control | T/C (dose: 100.0 mg/kg/injection, schedule: Q01DX009 (ip), vehicle: saline with Tween-80): 99 % of control | T/C [11]: 99 % of control

Cc1cc(NCCCCCCNc2cc(C)nc3cc([N+](=O)[O-])ccc23)c2ccc([N+](=O)[O-])cc2n1
T/C (dose: 50.0 mg/kg/injection, schedule: Q01DX009 (ip), vehicle: other): 98 % of control | T/C (dose: 100.0 mg/kg/injection, schedule: Q01DX009 (ip), vehicle: other): 99 % of control | T/C (dose: 200.0 mg/kg/injection, schedule: Q01DX009 (ip), vehicle: other): 96 % of control | T/C (dose: 400.0 mg/kg/injection, schedule: Q01DX009 (ip), vehicle: other): 103 % of control

COC(=O)[CH2][Sn]([CH2]C(=O)OC)([c]1ccccc1)[c]1ccccc1
T/C (dose: 0.39 mg/kg/injection, schedule: Q01DX005 (ip), vehicle: Klucel (hydroxypropylcellulose) (HPC)): 120 % of control | T/C (dose: 0.79 mg/kg/injection, schedule: Q01DX005 (ip), vehicle: Klucel (hydroxypropylcellulose) (HPC)): 112 % of control

O=S(=O)(C#Cc1ccccc1)C(F)(F)C(F)(F)C(F)(F)C(F)(F)F
T/C (dose: 100.0 mg/kg/injection, schedule: Q01DX001 (ip), vehicle: saline): 116 % of control | T/C (dose: 200.0 mg/kg/injection, schedule: Q01DX001 (ip), vehicle: saline): 115 % of control | T/C (dose: 400.0 mg/kg/injection, schedule: Q01DX001 (ip), vehicle: saline): 102 % of control

CCN(CC)CCSc1nnc(-c2ccc3c(c2)OCO3)o1
T/C (dose: 50.0 mg/kg/injection, schedule: Q04DX003 (ip), vehicle: water): 99 % of control | T/C (dose: 100.0 mg/kg/injection, schedule: Q04DX003 (ip), vehicle: water): 99 % of control | T/C (dose: 200.0 mg/kg/injection, schedule: Q04DX003 (ip), vehicle: water): 101 % of control

C/C=C(/C)C(=O)O[C@H]1CC[C@@]2(C)[C@@H]3CC[C@H]4[C@]5(O)C[C@H](O)[C@@]6(O)[C@@H](CN7C[C@@H](C)CC[C@H]7[C@@]6(C)O)[C@]5(O)C[C@@]42O[C@@]13O
T/C (dose: 0.39 mg/kg/injection, schedule: Q01DX009 (ip), vehicle: saline with Tween-80): 97 % of control | T/C (dose: 0.5 mg/kg/injection, schedule: Q01DX009 (ip), vehicle: saline): 95 % of control | T/C (dose: 0.78 mg/kg/injection, schedule: Q01DX009 (ip), vehicle: saline with Tween-80): 101 % of control | T/C (dose: 1.0 mg/kg/injection, schedule: Q01DX009 (ip), vehicle: saline): 109 % of control | T/C (dose: 1.56 mg/kg/injection, schedule: Q01DX009 (ip), vehicle: saline with Tween-80): 101 % of control | T/C (dose: 2.0 mg/kg/injection, schedule: Q01DX009 (ip), vehicle: saline): 109 % of control | T/C (dose: 3.12 mg/kg/injection, schedule: Q01DX009 (ip), vehicle: saline with Tween-80): 97 % of control | T/C [9]: 88 % of control

COc1cc(C=NC2CCCCC2)c(Br)c(OC)c1OC
T/C (dose: 100.0 mg/kg/injection, schedule: Q01DX001 (ip), vehicle: Klucel (hydroxypropylcellulose) (HPC)): 107 % of control | T/C (dose: 200.0 mg/kg/injection, schedule: Q01DX001 (ip), vehicle: Klucel (hydroxypropylcellulose) (HPC)): 107 % of control | T/C (dose: 400.0 mg/kg/injection, schedule: Q01DX001 (ip), vehicle: Klucel (hydroxypropylcellulose) (HPC)): 107 % of control

COc1cc2c(cc1OC)C(CN)C2 (centres undefined)
T/C (dose: 25.0 mg/kg/injection, schedule: Q01DX009 (ip), vehicle: saline): 111 % of control | T/C [6]: 109 % of control | T/C [7]: 119 % of control
